The record followed here is US9809568B2, “Compounds inhibiting leucine-rich repeat kinase enzyme activity” (Merck Sharp & Dohme Corp., priority 2013, dated 2017).

The target in this assay is LRRK2(G2019S mutation, GST-LRRK2 (amino acids 970-2527)) (Homo sapiens (Human), UniProt Q5S007, G2019S). Description: LRRK2 Km ATP LanthaScreen Assay. Format: biochemical. The conditions noted are these: Km ATP LanthaScreen TR-FRET; G2019S LRRK2, LRRKtide substrate; mean IC50 of several tests. An excerpt: Unless otherwise noted, all LRRK2 IC50 data presented in tables refers to the LRRK2 Km ATP LanthaScreen™ Assay that is described in the Biological Assay section.
Sequence of LRRK2(G2019S mutation, GST-LRRK2 (amino acids 970-2527)) (Q5S007 970-2527 G2019S): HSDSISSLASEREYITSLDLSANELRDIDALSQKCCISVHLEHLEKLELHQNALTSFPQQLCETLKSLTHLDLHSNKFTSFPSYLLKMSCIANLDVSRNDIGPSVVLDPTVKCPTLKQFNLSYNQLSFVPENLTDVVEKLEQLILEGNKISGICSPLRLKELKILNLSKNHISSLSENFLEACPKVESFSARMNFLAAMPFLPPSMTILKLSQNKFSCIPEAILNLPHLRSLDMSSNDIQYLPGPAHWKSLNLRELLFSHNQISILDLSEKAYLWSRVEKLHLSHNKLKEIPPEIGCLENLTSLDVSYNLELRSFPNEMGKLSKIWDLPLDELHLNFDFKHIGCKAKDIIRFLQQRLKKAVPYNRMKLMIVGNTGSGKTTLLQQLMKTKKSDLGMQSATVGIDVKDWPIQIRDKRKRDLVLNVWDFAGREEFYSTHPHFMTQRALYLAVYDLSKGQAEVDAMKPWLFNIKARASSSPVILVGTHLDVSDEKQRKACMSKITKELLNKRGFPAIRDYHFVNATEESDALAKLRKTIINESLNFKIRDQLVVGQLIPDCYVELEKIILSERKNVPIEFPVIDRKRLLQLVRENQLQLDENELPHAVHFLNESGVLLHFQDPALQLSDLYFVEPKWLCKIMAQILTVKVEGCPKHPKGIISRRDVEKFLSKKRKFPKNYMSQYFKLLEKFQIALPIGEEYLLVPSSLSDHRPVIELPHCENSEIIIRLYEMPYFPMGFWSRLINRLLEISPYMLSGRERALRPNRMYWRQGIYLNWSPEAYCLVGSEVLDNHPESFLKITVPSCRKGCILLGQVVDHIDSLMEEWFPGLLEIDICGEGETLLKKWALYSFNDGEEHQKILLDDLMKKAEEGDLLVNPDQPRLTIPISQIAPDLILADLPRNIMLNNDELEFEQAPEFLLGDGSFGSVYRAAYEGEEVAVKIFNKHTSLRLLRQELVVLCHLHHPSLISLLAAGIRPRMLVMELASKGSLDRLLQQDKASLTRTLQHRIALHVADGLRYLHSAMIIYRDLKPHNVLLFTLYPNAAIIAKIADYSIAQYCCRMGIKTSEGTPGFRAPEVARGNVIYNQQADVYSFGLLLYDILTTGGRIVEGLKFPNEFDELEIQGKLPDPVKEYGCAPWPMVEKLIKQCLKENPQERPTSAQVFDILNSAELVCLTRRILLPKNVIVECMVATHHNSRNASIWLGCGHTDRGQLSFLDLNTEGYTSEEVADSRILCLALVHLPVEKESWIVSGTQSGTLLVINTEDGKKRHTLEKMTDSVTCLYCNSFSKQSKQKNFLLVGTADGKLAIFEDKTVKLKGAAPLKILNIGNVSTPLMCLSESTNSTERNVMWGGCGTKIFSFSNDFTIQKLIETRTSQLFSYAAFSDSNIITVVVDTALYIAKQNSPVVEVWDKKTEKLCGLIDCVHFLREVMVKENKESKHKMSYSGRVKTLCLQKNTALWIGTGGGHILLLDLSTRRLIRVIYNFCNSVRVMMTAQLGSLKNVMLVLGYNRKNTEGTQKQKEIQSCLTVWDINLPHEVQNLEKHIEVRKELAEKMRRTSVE
The data presented for the Km ATP LanthaScreen™ Assay represents mean IC50 values based on several test results and may have reasonable deviations depending on the specific conditions and reagents used. Reagents for the LRRK2 Km ATP LanthaScreen™ Assay were purchased from Life Technologies Corporation.
LRRK2 Km ATP LanthaScreen™ Assay
• a) 400 nl of a 1:2.15 serial dilution of test compound (98 μM top assay concentration) is spotted via Labcyte Echo to certain wells in a 384 well black, untreated plate. Control wells contain 400 nl of either DMSO or 400 nl of a known inhibitor in DMSO. • b) 10 μl of a 2.5 nM LRRK2(G2019S mutation, GST-LRRK2 (amino acids 970-2527)) enzyme solution in 1× assay buffer (50 mM Tris pH 8.5, 10 mM MgCl2, 0.01% Brij-35, 1mM EGTA, 2 mM DTT, 0.05 mM NaVO4) is added to all wells. • c) A 30 minute room temperature incubation is followed by addition of 10 μl of 800 nM fluorescein labeled LRRKtide peptide substrate and 186 μM ATP solution in 1× assay buffer to all wells. • d) After a 60 minute room temperature incubation, 20 μl of TR-FRET Dilution Buffer (Invitrogen PV3756B) containing 4 nM Tb-labeled anti-phospho LRRKtide antibody and 20 mM EDTA is added to all wells. • e) Plates are incubated at room temperature for 1 hour and read on an Envision™ multi-mode plate reader with LanthaScreen™ settings. Results are analysed using Assay Data Analyzer.

On to `Fc1cc(-c2cnccn2)cc2c(-c3ccnc(N4CCOCC4)c3)n[nH]c12` [Example 6], for which the IC50 is 58 nM.

With `Cn1cc(-c2cc(Cl)c3[nH]nc(-c4ccnc(N5CCOCC5)c4)c3c2)cn1` [Example 8], the IC50 was found to be 309 nM.

In turn, `Cc1cc(-c2cnn(C)c2)cc2c(-c3ccnc(N4CCN(S(C)(=O)=O)CC4)c3)n[nH]c12` [Example 11] came in with an IC50 of 218 nM.

On to `Cc1cc(-c2cnn(C)c2)cc2c(-c3ccnc(N4CCOCC4)c3)n[nH]c12` [Example 7], for which the IC50 is 199 nM.

With `Cn1cc(-c2cc(F)c3[nH]nc(-c4ccnc(N5CC(F)C5)c4)c3c2)cn1` [Example 10], the IC50 worked out at 8.2 nM.

Regarding `Cc1cc(-c2cnn(C)c2)cc2c(-c3ccnc(N4CC[C@@H](F)C4)c3)n[nH]c12` [Example 12], the IC50 turned out to be 380 nM. Compared with the last compound, the IC50 is about 46-fold higher.

The compound `CC(C)Oc1cc(F)c2[nH]nc(-c3ccnc(N4CCOCC4)c3)c2c1` [Example 4] gave an IC50 of 12 nM.
